Structures are written as SMILES.

A word on the IC50: it is the concentration that inhibits the measured activity by half.

The test system of this assay is AMPA receptor. Description: Suppressing action to calcium influx into nerve cells induced by AMPA. Type of assay: cell-based. The following applies: Fura2-AM, stimulation with 2 μM AMPA, primary culture of rat embryo cerebral cortex nerve cells, 1 μM MK-801. The source says: Suppressing Action to Calcium Influx into Nerve Cells Induced by AMPA
The suppressing action of the compounds of the present invention to calcium influx into nerve cells induced by AMPA was investigated using the primary culture system of nerve cells of cerebral cortex of embryo of rat.
Cerebral cortex was cut out from the brain of rat of gestational 18 days and treated with trypsin and DNase to disperse the cells. The cells were flown by MEM containing 10% of serum, sown in a culture bottle and astrocytes were proliferated. The astrocytes were re-dispersed by trypsin and sown in a 96-well plate. After incubation for one week, it was confirmed that the astrocytes covered all over the bottom and then the nerve cells of cerebral cortex which was dispersed by the above method were sown thereupon. After incubation for 24 hours, the medium was changed, the incubation was carried out for one week and, after that, the medium was changed to that containing 1 μM of MK-801. Nerve cells which were incubated for not shorter than 8 to 10 days were used.
Calcium influx into the cells was measured using Fura2-AM which was a calcium-sensitive fluorescent dye. It was treated in a medium containing Fura2-AM for 1 hour, incorporated into the cells, exchanged to a Tyrode solution containing 1 μM MK-801 and stimulation was carried out using 2 μM AMPA. Change in the amount of calcium flown into the cells were measured as the change in the fluorescent intensity at the exciting wave length of 340/380 nm. […] As the control compound, GYKI52466 (Le Peillet, et al., Brain Res., 571, 115, 1992) was used.
`O=c1c(-c2cccnc2)cc(-c2ccccn2)nn1-c1ccccc1Br` [Example 61, 2-(2-Bromophenyl)-4-(3-pyridyl)-6-(2-pyridyl)-3 (2H)-pyridazinone]: the IC50 was determined as 300 nM. The same measure for `O=c1c(-c2cccnc2)cc(-c2ccccn2)nn1-c1ccccc1[N+](=O)[O-]` [Example 63, 2-(2-Nitrophenyl)-4-(3-pyridyl)-6-(2-pyridyl)-3 (2H)-pyridazinone]: 300 nM; for `N#Cc1ccccc1-c1cc(-c2ccccn2)nn(-c2ccccc2C#N)c1=O` [Example 46, 2-(2-Cyanophenyl)-4-(2-cyanophenyl)-6-(2-pyridyl)-3 (2H)-pyridazinone]: 300 nM. The same measure for `O=C1C(C(O)c2ccccn2)CC(c2ccccc2)=NN1c1ccccc1` (centres unmarked) [Example 11, 2,6-Diphenyl-4-(a-hydroxy-2-picolyl)-4,5-dihydro-3 (2H)-pyridazinone]: 9900 nM; for `O=C1N(c2ccsc2)CC(c2ccccn2)=NN1c1ccccc1Br` [Example 106, 2-(2-Bromophenyl)-6-(2-pyridyl)-4-(thiophen-3-yl)-4,5-dihydro-1,2,4-triazin-3 (2H)-one]: 100 nM; for `COc1ccccc1N1CC(c2ccccn2)=NN(c2ccccc2Br)C1=O` [Example 85, 2-(2-Bromophenyl)-4-(2-methoxyphenyl)-6-(2-pyridyl)-4,5-dihydro-1,2,4-triazin-3 (2H)-one]: 200 nM. The same measure for `O=C1C(c2ccccc2)CC(c2ccccn2)=NN1c1ccccc1[N+](=O)[O-]` (centres unmarked) [Example 27, 4-Phenyl-2-(2-nitrophenyl)-6-(2-pyridyl)-4,5-dihydro-3 (2H)-pyridazinone]: 40 nM. `COc1ccccc1C1CC(c2ccccn2)=NN(c2ccccc2I)C1=O` (centres unmarked) [Example 17, 2-(2-Iodophenyl)-4-(2-methoxyphenyl)-6-(2-pyridyl)-4,5-dihydro-3 (2H)-pyridazinone]: the IC50 came to 200 nM.

`COc1ccccc1C1=NN(c2ccccc2C#N)C(=O)N(c2ccccn2)C1` [Example 99, 2-(2-Cyanophenyl)-6-(2-methoxyphenyl)-4-(2-pyridyl)-4,5-dihydro-1,2,4-triazin-3 (2H)-one]: the IC50 was 70 nM. The same measure for `COc1ccccc1-c1cc(-c2ccccn2)c(=O)n(-c2ccccc2Br)n1` [Example 5, 2-(2-Bromophenyl)-6-(2-methoxyphenyl)-4-(2-pyridyl)-3 (2H)-pyridazinone]: 6700 nM. Turning to `COc1ccccc1N1N=C(c2ccccn2)CC(c2cccnc2)C1=O` (centres unmarked) [Example 76, 2-(2-Methoxyphenyl)-4-(3-pyridyl)-6-(2-pyridyl)-4,5-dihydro-3 (2H)-pyridazinone], the IC50 is 6200 nM.

`COc1ccc(N2CC(c3ccccn3)=NN(c3ccccc3)C2=O)c(OC)c1` [Example 107, 4-(2,4-Dimethoxyphenyl)-2-phenyl-6-(2-pyridyl)-4,5-dihydro-1,2,4-triazin-3 (2H)-one]: the concentration for half-maximal inhibition (IC50) was determined as 300 nM. The same measure for `N#Cc1ccccc1-n1nc(-c2ccccc2)cc(C(=O)NCCN2CCOCC2)c1=O` [Example 12, 2-(2-Cyanophenyl)-4-(4-morpholinoethylaminocarbonyl)-6-phenyl-3 (2H)-pyridazinone]: 3900 nM; for `O=C1N(c2ccccc2)CC(c2ccccc2O)=NN1c1ccccc1Br` [Example 90, 2-(2-Bromophenyl)-6-(2-hydroxyphenyl)-4-phenyl-4,5-dihydro-1,2,4-triazin-3 (2H)-one]: 900 nM; for `O=C1C(c2cccc(O)c2)CC(c2ccccn2)=NN1c1ccccc1Br` (centres unmarked) [Example 2, 2-(2-Bromophenyl)-4-(3-hydroxyphenyl)-6-(2-pyridyl)-4,5-dihydro-3 (2H)-pyridazinone]: 100 nM. With `COc1ccccc1C1CC(c2cccnc2)=NN(c2ccccc2Br)C1=O` (centres unmarked) [Example 24, 2-(2-Bromophenyl)-4-(2-methoxyphenyl)-6-(3-pyridyl)-4,5-dihydro-3 (2H)-pyridazinone] the figure was 60 nM; with `N#Cc1ccccc1N1CC(c2ccccn2)=NN(c2ccccc2)C1=O` [Example 104, 4-(2-Cyanophenyl)-2-phenyl-6-(2-pyridyl)-4,5-dihydro-1,2,4-triazin-3 (2H)-one], 500 nM; with `N#Cc1ncccc1-n1nc(-c2ccccn2)cc(-c2ccccc2)c1=O` [Example 80B, 2-(2-Cyanopyridin-3-yl)-4-phenyl-6-(2-pyridyl)-3 (2H)-pyridazinone], 200 nM.

For `N#Cc1ccccc1N1N=C(c2ccccn2)CC(c2ccccc2O)C1=O` (centres unmarked) [Example 41, 2-(2-Cyanophenyl)-4-(2-hydroxyphenyl)-6-(2-pyridyl)-4,5-dihydro-3 (2H)-pyridazinone], the IC50 amounted to 30 nM. With `N#Cc1ccccc1-n1nc(-c2cnccn2)cc(-c2ccccc2)c1=O` [Example 82, 2-(2-Cyanophenyl)-4-phenyl-6-(2-pyrazinyl)-3 (2H)-pyridazinone] the figure was 1200 nM. As to `N#Cc1ccccc1N1N=C(c2ccccn2)CN(c2cccc([N+](=O)[O-])c2)C1=O` [Example 127, 2-(2-Cyanophenyl)-4-(3-nitrophenyl)-6-(2-pyridyl)-4,5-dihydro-1,2,4-triazin-3 (2H)-one], the IC50 is 400 nM. Regarding `N#Cc1ccccc1-n1nc2c(c(-c3ccccc3)c1=O)C(O)Oc1ccc(F)cc1-2` (centres unmarked) [Example 53, 2-(2-Cyanophenyl)-9-fluoro-5-hydroxy-4-phenyl-2,3-dihydro-5H-(1)benzopyrano[4,3-c]pyridazin-3-one], the IC50 was found to be 500 nM.

Take `O=c1c(-c2ccccn2)cc(-c2ccccc2O)nn1-c1ccccc1Br` [Example 31, 2-(2-Bromophenyl)-6-(2-hydroxyphenyl)-4-(2-pyridyl)-3 (2H)-pyridazinone]: the IC50 is 900 nM. The same measure for `O=C1C(c2ccccc2)CC(c2cccnc2)=NN1c1ccccc1Br` (centres unmarked) [Example 20, 2-(2-Bromophenyl)-4-phenyl-6-(3-pyridyl)-4,5-dihydro-3 (2H)-pyridazinone]: 100 nM.

Take `O=c1c(-c2ccccc2)cc(-c2ccccn2)nn1-c1ccc[n+]([O-])c1` [Example 79, 2-(3-Pyridin-1-oxide)-4-phenyl-6-(2-pyridyl)-3 (2H)-pyridazinone]: the concentration for half-maximal inhibition (IC50) came to 7200 nM.

For the molecule `O=C1N(c2ccccc2Br)CC(c2ccccc2)=NN1c1ccccc1` [Example 113, 4-(2-Bromophenyl)-2,6-diphenyl-4,5-dihydro-1,2,4-triazin-3 (2H)-one], the IC50 turned out to be 7100 nM.

In the case of `N#Cc1ccc(-n2nc(-c3ccccn3)cc(-c3ccccc3)c2=O)cn1` [Example 80A, 2-(2-Cyanopyridin-5-yl)-4-phenyl-6-(2-pyridyl)-3 (2H)-pyridazinone], the IC50 is 7100 nM. With `O=c1c(-c2cccnc2)c2c(nn1-c1ccccc1Br)-c1ccccc1OC2` [Example 57, 2-(2-Bromophenyl)-4-(3-pyridyl)-2,3-dihydro-5H-(1)benzopyrano[4,3-c]pyridazine-3-one] the figure was 200 nM; with `N#Cc1ccccc1-n1nc(-c2nccs2)cc(-c2ccccc2)c1=O` [Example 83, 2-(2-Cyanophenyl)-4-phenyl-6-(thiazol-2-yl)-3 (2H)-pyridazinone], 600 nM; with `O=Cc1cccc(N2CC(c3ccccn3)=NN(c3ccccc3Br)C2=O)c1` [Example 123, 2-(2-Bromophenyl)-4-(3-formylphenyl)-6-(2-pyridyl)-4,5-dihydro-1,2,4-triazin-3 (2H)-one], 300 nM.

With `O=C1N(c2cccc([N+](=O)[O-])c2)CC(c2ccccn2)=NN1c1ccccc1Br` [Example 121, 2-(2-Bromophenyl)-4-(3-nitrophenyl)-6-(2-pyridyl)-4,5-dihydro-1,2,4-triazin-3 (2H)-one], the IC50 worked out at 400 nM. The same measure for `O=c1c(-c2ccccc2)cc(-c2ccccn2)nn1-c1ccccc1Br` [Example 56, 2-(2-Bromophenyl)-4-phenyl-6-(2-pyridyl)-3 (2H)-pyridazinone]: 200 nM; for `COc1ccccc1C1=NN(c2ccccc2)C(=O)N(c2ccccc2Br)C1` [Example 115, 4-(2-Bromophenyl)-6-(2-methoxyphenyl)-2-phenyl-4,5-dihydro-1,2,4-triazin-3 (2H)-one]: 7200 nM. With `COc1ccccc1C1CC(c2ccccn2)=NN(c2ccccc2Br)C1=O` (centres unmarked) [Example 14, 2-(2-Bromophenyl)-4-(2-methoxyphenyl)-6-(2-pyridyl)-4,5-dihydro-3 (2H)-pyridazinone], the IC50 amounted to 200 nM. The same measure for `O=c1c(-c2ccccc2)cc(-c2ccccn2)nn1-c1cccnc1` [Example 74, 2-(3-Pyridyl)-4-phenyl-6-(2-pyridyl)-3 (2H)-pyridazinone]: 900 nM; for `CSc1ccc(N2CC(c3ccccn3)=NN(c3ccccc3Br)C2=O)cc1` [Example 125, 2-(2-Bromophenyl)-4-(4-thiomethoxyphenyl)-6-(2-pyridyl)-4,5-dihydro-1,2,4-triazin-3 (2H)-one]: 600 nM; for `O=C1N(c2ccccn2)CC(c2ccccn2)=NN1c1ccccc1Br` [Example 118, 2-(2-Bromophenyl)-6-(2-pyridyl)-4-(2-pyridyl)-4,5-dihydro-1,2,4-triazin-3 (2H)-one]: 30 nM.

Turning to `O=C(NCCN1CCOCC1)c1cc(-c2ccccc2)nn(-c2ccccc2Cl)c1=O` [Example 62, 2-(2-Chlorophenyl)-4-(4-morpholinoethylaminocarbonyl)-6-phenyl-3 (2H)-pyridazinone], the IC50 is 4000 nM.

For the origin of these results see patent US20030225081A1, “Pyridazinones and triazinones and medicinal use thereof” (priority 2000, published 2003).
